The term Kd denotes the constant that tells how readily two partners part at equilibrium. By Ki is commonly meant the equilibrium dissociation constant of an inhibitor or competing ligand from its target. As usually defined, the IC50 is the concentration that inhibits the measured activity by half. Low values mean greater potency in that assay, high ones weaker potency in that assay.

The values below come from patent publication US11400130B2, “Inhibitors for proliferating cell nuclear antigen and uses” (Purdue Research Foundation, priority 2015, dated 2022).

In experiment [1] the target is T1, PCNA (Homo sapiens, UniProt P12004).
T1 construct: made in house; host or cells: E. coli BL21 (DE3)
In words: Fluorescence polarization binding assay (PCNA titration for affinity of FAM-PL). The conditions noted are these: fixed FAM-PL (5 nM), two-fold increasing recombinant His-tagged PCNA, non-linear regression; read-out: Kd of FAM-PL peptide for PCNA. The procedure: After synthesis and purification, peptoids were screened in a fluorescence polarization (FP) assay to find ligands that disrupted the interaction between His-tagged PCNA and fluorescein-labeled Pogo Ligase peptide (FAM-PL) (Kontopidis, G., et al. Proc. Natl. Acad. Sci. U.S.A 2005, 102 (6), 1871-1876). In the design of the assay, conditions were adopted from Pedley et al., 2016, to improve the dynamic range between bound and unbound FAM-PL. While an acceptable Z-score was determined using the original 10 nM peptide and 100 nM PCNA (FIG. 4), an improved dynamic range was established by adjusting the ligand and receptor concentrations. […] Because more than 80% of the peptide was bound at a PCNA concentration of […] this protein-receptor concentration was selected for use in subsequent displacement assays. The inclusion of PCNA was included in the overall calculations of Ki values.
Fluorescence Polarization Binding Assay. […] Fluorescence polarization and resultant anisotropy were measured on a BioTek Synergy 4 Multi-Detection Microplate Reader using an excitation filter of 485 nm and an emission filter of 530 nm, each with a 20 nm band-pass. […]
FO values were analyzed using non-linear regression statistics in OriginPro 2015, representing them as the mean±standard error of the mean (Y), and plotting them as a function of the monomeric PCNA protein concentration (X). […]
(Polarisation of emitted light reports the rotation of a fluorescent probe.)

In experiment [2] the target is T1, PCNA. In words: Fluorescence polarization competition assay (displacement of FAM-PL from His-tagged PCNA). The conditions noted are these: for Disruption of PCNA-PL peptide binding by individual fragments: individual peptoid fragments screened alone, dose response (FIG. 7); for Ki: calculated from IC50 using equation 5 (modified Cheng-Prusoff), 95% confidence interval around the mean; for IC50: disruption of PCNA / FAM-PL binding, values are 95% confidence interval around the mean. In kind it is binding. The procedure: The inclusion of PCNA was included in the overall calculations of Ki values.
Anisotropy was converted to fractional occupancy, and IC50 values were determined for each peptoid by performing non-linear regression fits of each dose response curve using equation 4. Inhibition constants (Ki values) were calculated from the resultant IC50 values using equation 5 (Table 2).
Fluorescence Polarization Competition Assay. […] The plate was allowed to incubate at room temperature in the dark for 30 minutes prior to fluorescent measurement. […] Anisotropy values were converted to fractional occupancy using equation 2, and IC50 values were calculated by fitting the data to equation 4:
[formula] wherein n is the Hill slope.

Peptide text beside a SMILES is read from it. * marks the point of attachment. 5FAM = O=C1OC2(c3ccc(O)cc3Oc3cc(O)ccc32)c2ccc(C(=O)*)cc21; Ahx = NCCCCCC(=O)O

T1 sequence (P12004 with tags, fused parts or gaps): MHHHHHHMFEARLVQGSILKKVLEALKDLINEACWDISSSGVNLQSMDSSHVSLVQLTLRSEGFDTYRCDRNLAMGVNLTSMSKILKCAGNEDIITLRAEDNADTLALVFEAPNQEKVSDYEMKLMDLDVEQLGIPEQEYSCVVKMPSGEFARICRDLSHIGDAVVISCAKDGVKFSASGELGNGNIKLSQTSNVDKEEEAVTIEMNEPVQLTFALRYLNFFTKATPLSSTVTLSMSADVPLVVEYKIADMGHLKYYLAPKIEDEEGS

With `CC[C@H](C)[C@H](NC(=O)[C@H](CCCCN)NC(=O)[C@H](CCCCN)NC(=O)[C@H](CCC(N)=O)NC(=O)[C@H](CC(C)C)NC(=O)[C@@H](NC(=O)[C@H](C)NC(=O)[C@H](CO)NC(=O)CCCCCNC(=O)c1ccc2c(c1)C(=O)OC21c2ccc(O)cc2Oc2cc(O)ccc21)C(C)C)C(=O)N[C@H](C(=O)N[C@@H](CC(=O)O)C(=O)N[C@@H](Cc1ccc(O)cc1)C(=O)N[C@@H](Cc1ccccc1)C(=O)N[C@@H](Cc1c[nH]cn1)C(=O)N1CCC[C@H]1C(=O)N[C@@H](CCCCN)C(=O)N[C@@H](CCCCN)C(N)=O)[C@@H](C)O` [FAM-PL] ({5FAM-Ahx}-SAVLQKKITDYFHPKK-NH2), the equilibrium dissociation constant (Kd) on PCNA [1] was found to be 107 nM.
Consider `CC(C)(C)[Si](C)(C)OCc1ccc(CN)cc1` [NBal], for which the “Disruption of PCNA-PL peptide binding by individual fragments” value on PCNA [2] is “none of the fragments showed any evidence of inhibition”.
Still for that read-out and setting: then `CC(C)(C)OC(=O)c1ccc(CN)cc1` [NBza], with “none of the fragments showed any evidence of inhibition”; and `NCCO` [NEal, ethanol amine], with “none of the fragments showed any evidence of inhibition”.
In the case of `NCCCCNCC(=O)N(CC(=O)N(CC(N)=O)Cc1ccc(CN)cc1)Cc1ccc2c(c1)OCO2` [NLys-NPip-NMma], at PCNA [2], the Ki is 1240 ± 190 nM and the half-inhibitory concentration (IC50) stood at 12.9 ± 1.97 µM.
For `NCc1ccc(CNCC(=O)N(CC(=O)N(CC(N)=O)Cc2ccc(CO)cc2)Cc2ccc3c(c2)OCO3)cc1` [NMma-NPip-NBal], in that order: 1120 ± 245 nM and 11.7 ± 2.55 µM.
The matching figures for `NCc1ccc(CN(CC(N)=O)C(=O)CN(CCO)C(=O)CN[C@H](CO)Cc2cc(I)c(Oc3ccc(O)cc3)c(I)c2)cc1` [T2AA-NEal-NMma]: 114 ± 23.1 nM and 1.18 ± 0.24 µM.
